Results reported in article PMC3896386 (Journal of medicinal chemistry, 2013).
One block for each molecule: values may come before it.

How the values were obtained:
[1] = molecular target: T1, RyR2-R4496C mutant HEK293 cell line (Mus musculus, UniProt E9Q401, R4495C); conditions: previously reported; cited from earlier work
[2] = molecular target: T1, RyR2-R4496C mutant HEK293 cell line

T1 sequence (E9Q401 whole entry R4495C): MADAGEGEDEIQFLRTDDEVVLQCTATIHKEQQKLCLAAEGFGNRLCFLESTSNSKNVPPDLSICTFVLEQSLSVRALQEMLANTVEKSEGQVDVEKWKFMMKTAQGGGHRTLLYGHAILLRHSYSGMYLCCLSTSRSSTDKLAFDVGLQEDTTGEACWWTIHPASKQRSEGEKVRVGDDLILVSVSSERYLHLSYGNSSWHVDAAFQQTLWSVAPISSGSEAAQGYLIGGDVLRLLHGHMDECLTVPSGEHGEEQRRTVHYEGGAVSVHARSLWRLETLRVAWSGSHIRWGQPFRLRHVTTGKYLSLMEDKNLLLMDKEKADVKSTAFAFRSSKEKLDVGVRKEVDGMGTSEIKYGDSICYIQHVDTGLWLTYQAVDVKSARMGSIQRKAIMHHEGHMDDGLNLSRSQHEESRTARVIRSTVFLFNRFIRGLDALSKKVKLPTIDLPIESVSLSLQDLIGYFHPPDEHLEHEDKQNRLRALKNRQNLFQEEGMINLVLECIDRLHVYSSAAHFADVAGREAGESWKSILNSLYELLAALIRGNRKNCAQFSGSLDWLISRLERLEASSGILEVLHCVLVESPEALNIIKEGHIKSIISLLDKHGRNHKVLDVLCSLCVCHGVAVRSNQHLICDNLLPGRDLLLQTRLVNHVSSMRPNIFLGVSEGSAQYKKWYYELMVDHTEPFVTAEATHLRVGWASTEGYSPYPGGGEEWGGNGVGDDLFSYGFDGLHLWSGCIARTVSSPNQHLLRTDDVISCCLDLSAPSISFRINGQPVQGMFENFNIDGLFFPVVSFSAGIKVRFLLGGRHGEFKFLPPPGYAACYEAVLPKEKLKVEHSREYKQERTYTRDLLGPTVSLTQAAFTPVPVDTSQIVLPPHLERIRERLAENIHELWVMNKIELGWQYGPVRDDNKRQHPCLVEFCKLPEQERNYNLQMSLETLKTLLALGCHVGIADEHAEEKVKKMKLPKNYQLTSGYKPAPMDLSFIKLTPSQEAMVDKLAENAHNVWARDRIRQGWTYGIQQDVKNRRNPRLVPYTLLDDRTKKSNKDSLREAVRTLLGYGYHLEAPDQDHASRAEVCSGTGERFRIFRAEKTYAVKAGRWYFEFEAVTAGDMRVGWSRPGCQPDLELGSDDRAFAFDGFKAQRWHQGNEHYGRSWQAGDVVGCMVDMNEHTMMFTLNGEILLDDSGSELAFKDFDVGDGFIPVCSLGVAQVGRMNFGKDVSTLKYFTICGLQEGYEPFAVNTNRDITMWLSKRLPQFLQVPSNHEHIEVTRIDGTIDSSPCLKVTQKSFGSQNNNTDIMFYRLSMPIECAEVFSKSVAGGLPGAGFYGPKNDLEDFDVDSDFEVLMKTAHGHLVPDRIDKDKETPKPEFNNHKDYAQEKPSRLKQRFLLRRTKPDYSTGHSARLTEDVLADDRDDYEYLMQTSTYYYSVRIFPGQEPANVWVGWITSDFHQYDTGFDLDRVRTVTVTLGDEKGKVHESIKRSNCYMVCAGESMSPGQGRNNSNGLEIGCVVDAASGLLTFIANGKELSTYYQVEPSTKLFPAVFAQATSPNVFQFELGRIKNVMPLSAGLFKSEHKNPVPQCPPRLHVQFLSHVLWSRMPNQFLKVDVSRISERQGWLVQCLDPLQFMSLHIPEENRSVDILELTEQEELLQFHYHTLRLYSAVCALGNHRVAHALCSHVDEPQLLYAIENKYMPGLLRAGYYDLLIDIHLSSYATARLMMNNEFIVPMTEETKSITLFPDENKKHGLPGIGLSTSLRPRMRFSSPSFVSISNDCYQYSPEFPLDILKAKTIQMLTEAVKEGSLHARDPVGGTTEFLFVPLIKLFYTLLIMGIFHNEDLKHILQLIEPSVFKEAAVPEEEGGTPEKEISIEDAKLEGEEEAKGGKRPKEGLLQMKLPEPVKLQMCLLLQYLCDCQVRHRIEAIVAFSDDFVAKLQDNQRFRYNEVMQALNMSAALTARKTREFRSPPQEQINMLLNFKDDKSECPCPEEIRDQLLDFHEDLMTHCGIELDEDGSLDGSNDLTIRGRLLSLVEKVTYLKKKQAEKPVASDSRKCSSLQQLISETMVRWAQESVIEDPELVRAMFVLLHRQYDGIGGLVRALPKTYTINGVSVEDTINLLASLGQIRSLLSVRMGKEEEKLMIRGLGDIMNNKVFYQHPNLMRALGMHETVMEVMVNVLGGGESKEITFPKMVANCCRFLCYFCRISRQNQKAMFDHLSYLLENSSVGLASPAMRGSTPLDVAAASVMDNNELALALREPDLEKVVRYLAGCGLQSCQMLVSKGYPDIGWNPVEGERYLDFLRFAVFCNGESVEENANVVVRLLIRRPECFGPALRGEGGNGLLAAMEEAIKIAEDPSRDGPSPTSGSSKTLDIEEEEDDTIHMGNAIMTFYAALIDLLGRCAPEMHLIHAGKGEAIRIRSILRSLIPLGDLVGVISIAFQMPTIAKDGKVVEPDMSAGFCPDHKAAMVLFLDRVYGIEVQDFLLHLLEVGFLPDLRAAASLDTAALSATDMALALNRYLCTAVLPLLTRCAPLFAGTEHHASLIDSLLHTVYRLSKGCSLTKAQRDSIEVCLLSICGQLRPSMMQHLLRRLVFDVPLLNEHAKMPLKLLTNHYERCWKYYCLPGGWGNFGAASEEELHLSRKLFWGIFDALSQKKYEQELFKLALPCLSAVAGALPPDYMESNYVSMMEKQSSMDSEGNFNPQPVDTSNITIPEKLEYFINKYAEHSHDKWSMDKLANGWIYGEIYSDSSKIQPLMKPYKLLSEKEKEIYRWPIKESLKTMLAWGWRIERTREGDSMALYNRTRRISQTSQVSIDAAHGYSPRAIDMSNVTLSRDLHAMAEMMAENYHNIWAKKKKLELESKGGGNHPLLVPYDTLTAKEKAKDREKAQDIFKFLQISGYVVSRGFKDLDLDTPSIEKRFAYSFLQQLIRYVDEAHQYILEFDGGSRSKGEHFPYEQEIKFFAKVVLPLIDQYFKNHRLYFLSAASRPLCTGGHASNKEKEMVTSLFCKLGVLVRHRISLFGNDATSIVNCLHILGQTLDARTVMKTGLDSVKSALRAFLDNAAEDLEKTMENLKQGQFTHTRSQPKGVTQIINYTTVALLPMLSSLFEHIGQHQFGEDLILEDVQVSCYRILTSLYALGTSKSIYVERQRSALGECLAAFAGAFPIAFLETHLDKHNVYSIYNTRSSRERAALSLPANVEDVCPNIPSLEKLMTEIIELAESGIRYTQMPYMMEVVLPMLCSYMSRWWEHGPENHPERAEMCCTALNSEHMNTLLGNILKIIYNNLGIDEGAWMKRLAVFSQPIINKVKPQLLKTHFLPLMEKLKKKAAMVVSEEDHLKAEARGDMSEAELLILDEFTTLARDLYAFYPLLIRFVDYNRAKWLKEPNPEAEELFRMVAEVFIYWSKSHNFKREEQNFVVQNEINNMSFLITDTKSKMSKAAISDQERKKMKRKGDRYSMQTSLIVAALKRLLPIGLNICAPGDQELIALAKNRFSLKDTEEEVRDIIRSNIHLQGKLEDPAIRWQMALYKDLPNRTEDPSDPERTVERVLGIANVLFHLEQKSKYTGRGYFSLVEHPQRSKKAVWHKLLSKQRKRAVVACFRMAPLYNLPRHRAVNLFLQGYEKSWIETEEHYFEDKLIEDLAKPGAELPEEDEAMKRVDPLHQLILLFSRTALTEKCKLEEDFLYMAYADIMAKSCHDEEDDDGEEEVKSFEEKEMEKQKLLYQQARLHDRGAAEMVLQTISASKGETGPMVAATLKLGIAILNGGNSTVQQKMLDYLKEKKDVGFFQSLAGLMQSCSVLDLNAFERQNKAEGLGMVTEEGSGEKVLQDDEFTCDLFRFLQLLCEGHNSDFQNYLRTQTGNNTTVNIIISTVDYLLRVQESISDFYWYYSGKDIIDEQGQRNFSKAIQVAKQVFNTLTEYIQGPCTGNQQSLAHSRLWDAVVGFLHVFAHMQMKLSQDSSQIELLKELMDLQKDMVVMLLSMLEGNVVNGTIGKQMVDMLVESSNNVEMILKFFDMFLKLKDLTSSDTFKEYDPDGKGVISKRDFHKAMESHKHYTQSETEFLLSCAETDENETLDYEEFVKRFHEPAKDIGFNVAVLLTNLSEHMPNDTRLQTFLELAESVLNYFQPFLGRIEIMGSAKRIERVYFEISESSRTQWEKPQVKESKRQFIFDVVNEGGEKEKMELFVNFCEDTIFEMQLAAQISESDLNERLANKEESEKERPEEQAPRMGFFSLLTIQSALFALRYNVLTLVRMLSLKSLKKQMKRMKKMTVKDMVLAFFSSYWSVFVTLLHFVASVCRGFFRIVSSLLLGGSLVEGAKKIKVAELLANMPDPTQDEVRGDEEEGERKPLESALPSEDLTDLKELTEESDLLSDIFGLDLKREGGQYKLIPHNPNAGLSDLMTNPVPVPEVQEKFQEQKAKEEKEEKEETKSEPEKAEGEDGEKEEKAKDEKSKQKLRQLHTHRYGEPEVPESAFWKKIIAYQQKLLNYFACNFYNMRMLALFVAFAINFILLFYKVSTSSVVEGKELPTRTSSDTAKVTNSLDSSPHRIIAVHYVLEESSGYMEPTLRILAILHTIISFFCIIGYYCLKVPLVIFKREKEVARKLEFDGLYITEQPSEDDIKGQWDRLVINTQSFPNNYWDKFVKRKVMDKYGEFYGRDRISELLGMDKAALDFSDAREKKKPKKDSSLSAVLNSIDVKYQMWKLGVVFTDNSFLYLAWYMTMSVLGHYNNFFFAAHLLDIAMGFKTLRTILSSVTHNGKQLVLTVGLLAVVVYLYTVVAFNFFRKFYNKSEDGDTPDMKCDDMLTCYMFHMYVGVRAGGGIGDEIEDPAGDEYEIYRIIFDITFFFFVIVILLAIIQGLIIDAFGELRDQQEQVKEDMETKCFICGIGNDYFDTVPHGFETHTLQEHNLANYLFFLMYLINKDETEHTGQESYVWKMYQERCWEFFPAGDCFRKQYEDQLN

SMILES: COc1ccccc1OCCNCC(O)COc1cccc2[nH]c3ccccc3c12 (stereo not drawn) [carvedilol 1, carvedilol]
ability to inhibit SOICR [1]: ca. 10 μmolar

decrease of SOICR-inhibiting activity on lactamization of 34 ([2]; relative to 34): more than 6 fold
SMILES: COc1ccccc1OCCN1CCC(COc2cccc3[nH]c4ccccc4c23)OCC1=O (stereo not drawn) [compound 35, 7-[(9H-carbazol-4-yloxy)methyl]-4-[2-(2-methoxyphenoxy)ethyl]-1,4-oxazepan-3-one]

decrease of SOICR-inhibiting activity on oxidation of 66 to the sulfone ([2]; relative to 66): more than 10 fold
SMILES: COc1ccccc1OCCNCC(O)COc1ccc2c(c1)Nc1ccccc1S2(=O)=O (stereo not drawn) [compound 67, 2-(2-Hydroxy-3-{[2-(2-methoxyphenoxy)ethyl]amino}propoxy)-10H-5λ6,10-phenothiazine-5,5-dione]
